Values joined by “and” are separate entries in the source; they are usually repeats but may differ in a detail not shown here. Equal values may be shown once. “Also recorded” adds a separate entry of the source. Read-outs that look alike come from different tables or passages of the source.
What was measured:
[1] = system: OECs and astrocytes; test: OEC:astrocyte confrontation assay (boundary formation); type: cell-based, Sprague-Dawley rat; set-up: key to graded score of boundary formation: mingling (−); partial boundary (+/−); complete boundary (++); details: 2 days of treatment; for boundary formation between OECs and astrocytes: modified heparins 10 μg/ml
Experimental: (§1) All primary neural cultures were generated from Sprague-Dawley rat pups of either sex. As described previously^10,37, purified type 1 astrocytes were prepared by digesting cortices (dissected from 1-day old Sprague Dawley (SD) rats) in 1.33% (w/v) collagenase (Sigma-Aldrich, Gillingham, UK), seeding (˜2×10^7 cells per 75 cm^2 flask) and culturing the cells in poly-L-lysine (PLL, 13.3 μg/ml, Sigma-Aldrich, Gillingham, UK) coated 75 cm2 flasks for 10-12 days. The cells were maintained in DMEM (Invitrogen, Paisley, Scotland) supplemented with 10% (v/v) foetal bovine serum (FBS) (Sigma-Aldrich, Gillingham, UK) and L-glutamine (2 mM, Sigma-Aldrich, Gillingham, UK) (DMEM-FBS). Confluent flasks were shaken on a rotary platform overnight at 37° C. to remove contaminating oligodendrocyte precursor cells. The remaining cells were 85-95% type 1 astrocytes as identified by labelling for glial fibrillary acidic protein (GFAP), an astrocyte cell specific marker.
OECs were isolated from the olfactory bulb of 7 day old SD rat pups and purified using magnetic nanoparticles (STEMCELL Technologies, UK) pre-bound with the p75^NTR antibody (mouse IgG1, Abcam, Cambridge, UK)^30. The cells were grown in low glucose DMEM with 5% (v/v) FBS and 2 mM L-glutamine and further supplemented with DMEM-BS (Bottenstein, 1979), FGF2 (25 ng/ml, Peprotech, London UK), heregulin β-1 (50 ng/ml, R&D Systems, Oxon, UK), forskolin (5×10^-7 M Sigma-Aldrich, Gillingham, UK) and astrocyte conditioned media (ACM) (1:5, fresh serum-free media taken after incubation with a confluent astrocyte monolayer for 48 h)^18, 37.
Confrontation assays were performed as described by Wilby et al. (1999) and Lakatos et al. (2000) with some modifications^10,48. Briefly, 70 μl containing 10,000 OECs or SCs were seeded into one well of a silicon Ibidi culture insert on a PLL-coated glass coverslip (Ibidi GmbH, Munich, Germany). Into the opposing, parallel well, 10,000 astrocytes were seeded. Cells were allowed to attach for 1 h before careful removal of the insert followed by a wash with DMEM-FBS to remove unattached cells. Cultures were maintained in DMEM-FBS and allowed to grow towards each other over a period of 5-7 days, allowing time for cells to make contact and interact^10. In some experiments, modified heparins or blocking antibodies were added to the cultures after the cells had contacted each other. Cultures were then immunolabelled using anti-GFAP for astrocytes (1:500; anti-rabbit (Dako, Ely, UK)) and anti-p75NTR for OECs and SCs (1:1; IgG1; hybridoma supernatant^49. Fluorescent images were captured using an Olympus BX51 fluorescent microscope and Image-Pro software. Using Adobe Photoshop Elements 7.0, a 300 μm line was drawn along the interface between astrocytes and either OECs or SCs. The numbers of OECs or SCs crossing the cell:cell boundary were counted and averaged over five randomly chosen fields. Experiments were repeated at least three times.
Modified heparins were produced semisynthetically by chemical modification (selective desulfation) of heparin as described in Example 1. These structurally distinct, model “HS-mimetic” polysaccharides^50 are useful tools for investigating structure-activity relationships of HS^15-17,31. Heparins were added to confrontation assays at 10 μg/ml at the stage when cells made contact (day 0) and treatment was repeated on day 2. Cultures were fixed and stained as described above on day 3. […]
Purified OECs were seeded at a density of 5000 cells/100 μl into one chamber of an Ibidi culture insert (Ibidi GmbH, Munich, Germany) sealed onto a PLL coated coverslip in a well of a 24-well plate. Cells were cultured in defined OEC medium for 24 h, after which, the medium was replaced with low serum (2% (v/v) FBS) OEC medium containing 1 μM siRNA. siRNA sequences were obtained from Dharmacon/Thermo Scientific (Sulf 1: E-093746-00-0005; Sulf2: E-093673-00-0005; non-targeting: D-001910-01-05; Thermo Fisher Scientific Inc, IL, USA). […]

[2] = system: T1, Factor Xa (Homo sapiens); test: Anti-factor Xa activity against PIMH standard, Coatest Heparin test kit; type: biochemical; details: compared with standard heparin (HEP1)
T1 construct: purchased Chromogenix
Experimental: Anti Factor Xa activity can be measured against a PIMH standard of known activity (Sigma, UK) using a diagnostic grade Coatest Heparin test kit (Chromogenix, MA), adapted to a 96-well plate format, reading A405 (Polarstar plate reader (BMG LabTechnologies, U.K.))^17.
The anti-factor Xa activity was measured against a PIMH standard of known activity using a diagnostic grade Coatest Heparin test kit (Chromogenix, MA), adapted to a 96-well plate format, reading A405.

[3] = system: normal human plasma; test: APTT assay; type: biochemical; details: tested up to 100 ug/ml
Experimental: (§2) APTT and PT assays were performed using a Axis Shield Thrombotrack 1 instrument using normal human plasma, Pathrombin SL reagent and Thromborel S (all from Axis Shield) reagents according to manufacturers instructions.
(§3) For all assays, heparins and polysaccharides were tested up to 100 ug/ml.

[4] = system: SCs and astrocytes; test: SC:astrocyte confrontation assay (boundary formation); type: cell-based, Sprague-Dawley rat; details: modified heparins 10 μg/ml, 2 days of treatment
Experimental: as §1
SCs were purified using a modification of the method described by Brockes and colleagues^20. This modification involved treating the cultures with cytosine arabinoside (AraC, 10^−5 M, Sigma-Aldrich, Gillingham, UK), followed by incubation with anti-Thy1.1 antibody (1:1 supernatant, Sigma-Aldrich, Gillingham, UK) and rabbit complement (1:6, Harlan Laboratories Ltd., UK) to reduce contamination by fibroblasts^10. […]
Confrontation assays were performed as described by Wilby et al. (1999) and Lakatos et al. (2000) with some modifications^10,48. […] Cultures were then immunolabelled using anti-GFAP for astrocytes (1:500; anti-rabbit (Dako, Ely, UK)) and anti-p75NTR for OECs and SCs (1:1; IgG1; hybridoma supernatant^49. Fluorescent images were captured using an Olympus BX51 fluorescent microscope and Image-Pro software. Using Adobe Photoshop Elements 7.0, a 300 μm line was drawn along the interface between astrocytes and either OECs or SCs. The numbers of OECs or SCs crossing the cell:cell boundary were counted and averaged over five randomly chosen fields. Experiments were repeated at least three times. […]

[5] = molecular target: T1, Factor Xa (Homo sapiens); test: Factor Xa colorimetric substrate assay with antithrombin III; type: biochemical; details: tested up to 100 ug/ml
Experimental: (§4) Factor Xa and Factor II activity was measured using a colorimetric substrate assay as previously described^17. Briefly, in a 96 well ELISA plate, antithrombin III (American Diagnostica, 30 mIU/ml final concentration) was incubated with heparin or polysaccharide fractions in 0.9% NaCl at 37° C. for 2 minutes. Factor IIa (Sigma, 15 mU/ml final concentration) or Factor Xa (Thermo Scientific, 15 mU/ml final concentration) was added and the samples incubated for a further 1 minute at 37° C. Factor Xa Chromogenic substrate (Sigma, 240 uM final concentration) was added to the samples and incubated for 10 minutes at 37° C. The reaction was stopped with glacial acetic acid (Sigma, 25% final concentration). Colour change of the substrate was measured at 405 nm.
as §3

[6] = system: normal human plasma; test: PT assay; type: biochemical; details: tested up to 100 ug/ml
Experimental: as §2, §3

[7] = molecular target: T2, Factor IIa (Homo sapiens, UniProt P00734+P01008); test: Factor IIa colorimetric substrate assay with antithrombin III; type: biochemical; details: tested up to 100 ug/ml
T2 construct: Factor IIa (Sigma, 15 mU/ml final concentration); purchased Sigma (Factor IIa); American Diagnostica (antithrombin III)
Experimental: as §4, §3

[8] = system: OECs and astrocytes; details: previous work; cited from earlier work
[9] = Celsus Labs lot PH-42800; cited from earlier work

T1 sequence (P01008 33-464): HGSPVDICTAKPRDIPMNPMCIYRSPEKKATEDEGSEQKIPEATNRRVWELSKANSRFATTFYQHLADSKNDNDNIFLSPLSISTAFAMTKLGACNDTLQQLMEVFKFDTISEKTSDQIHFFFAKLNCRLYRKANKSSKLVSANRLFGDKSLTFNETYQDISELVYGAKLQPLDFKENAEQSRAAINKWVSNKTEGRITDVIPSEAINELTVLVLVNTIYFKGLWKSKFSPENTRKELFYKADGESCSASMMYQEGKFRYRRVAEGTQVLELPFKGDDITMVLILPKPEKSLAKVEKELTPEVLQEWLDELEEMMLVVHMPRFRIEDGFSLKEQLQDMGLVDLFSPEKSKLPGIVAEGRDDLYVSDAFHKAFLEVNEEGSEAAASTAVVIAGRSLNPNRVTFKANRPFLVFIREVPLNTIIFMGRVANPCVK

Anticoagulant activity (anti-Xa activity) [2] [%] | Substance | IC50 APTT [3] | IC50 Factor Xa [5] | IC50 PT [6] | IC50 Factor IIa [7] | other results
0.03 | 6-O-desulphated, 2-O-desulphated, N-acetylated heparin [HEP8] | NI (No inhibition of coagulation up to 100 ug/ml of compound) | NI (No inhibition of coagulation up to 100 ug/ml of compound) | NI (No inhibition of coagulation up to 100 ug/ml of compound) | NI (No inhibition of coagulation up to 100 ug/ml of compound) | SCs mingling with astrocytes / boundary formation ([4]; listed as Hep 8): increased number of SCs mingling with astrocytes; also recorded: significantly increased cell mingling; boundary formation between OECs and astrocytes ([1]; listed as Hep 8): do not promote boundary formation; boundary formation between OECs and astrocytes ([1]; listed as Hep8): did not
0.03 | N-acetyl heparin [HEP2] | – | – | – | – | boundary formation between OECs and astrocytes ([1]; listed as Hep 2): induced significant boundary formation; boundary formation between OECs and astrocytes ([1]; listed as Hep2): induced boundaries between OECs and astrocytes

Further lines, the substance ahead of its results:

Substance | Anticoagulant activity (anti-Xa activity) [2] [%] | IC50 APTT [3] | IC50 Factor Xa [5] | IC50 PT [6] | IC50 Factor IIa [7] | other results
6-O-desulphated heparin [HEP4] | 0.5 | – | – | – | – | boundary formation between OECs and astrocytes ([1]; listed as Hep 4): lower boundary forming activity; boundary formation between OECs and astrocytes ([1]; listed as Hep4): induced boundaries between OECs and astrocytes
6-O-desulphated, 2-O-desulphated heparin [HEP7] | 0.03 | NI (No inhibition of coagulation up to 100 ug/ml of compound) | NI (No inhibition of coagulation up to 100 ug/ml of compound) | NI (No inhibition of coagulation up to 100 ug/ml of compound) | NI (No inhibition of coagulation up to 100 ug/ml of compound) | SCs mingling with astrocytes / boundary formation ([4]; listed as Hep 7): increased number of SCs mingling with astrocytes; also recorded: significantly increased cell mingling; boundary formation between OECs and astrocytes ([1]; listed as Hep 7): do not promote boundary formation; boundary formation between OECs and astrocytes ([1]; listed as Hep7): did not
6-O-desulphated, N-acetylated heparin [HEP6] | 0.03 | NI (No inhibition of coagulation up to 100 ug/ml of compound) | NI (No inhibition of coagulation up to 100 ug/ml of compound) | NI (No inhibition of coagulation up to 100 ug/ml of compound) | NI (No inhibition of coagulation up to 100 ug/ml of compound) | SCs mingling with astrocytes / boundary formation ([4]; listed as Hep 6): increased number of SCs mingling with astrocytes; also recorded: significantly increased cell mingling; boundary formation between OECs and astrocytes ([1]; listed as Hep 6): do not promote boundary formation; boundary formation between OECs and astrocytes ([1]; listed as Hep6): did not
Heparin [reference compound] | – | 1.2 µg/mL and 1.2461 µg/mL | 0.9 µg/mL and 0.9295 µg/mL | 41.4 µg/mL and 41.4005 µg/mL | 1.0 µg/mL and 1.0326 µg/mL | boundary formation between OECs and astrocytes [8]: induce a boundary between OECs and astrocytes; graded score of boundary formation ([1]; 10 μg/ml): ++
Ido 2-de-O-sulphated heparin [HEP3] | 0.4 | – | – | – | – | boundary formation between OECs and astrocytes ([1]; listed as Hep 3): lower boundary forming activity; boundary formation between OECs and astrocytes ([1]; listed as Hep3): induced boundaries between OECs and astrocytes
Ido 2-de-O-sulphated, N-acetylated heparin [HEP5] | 0.03 | NI (No inhibition of coagulation up to 100 ug/ml of compound) | NI (No inhibition of coagulation up to 100 ug/ml of compound) | NI (No inhibition of coagulation up to 100 ug/ml of compound) | NI (No inhibition of coagulation up to 100 ug/ml of compound) | boundary formation between OECs and astrocytes [1]: did not
PIMH [HEP1, reference compound] | 100 | – | – | – | – | boundary formation between OECs and astrocytes [1]: induced boundaries between OECs and astrocytes; also recorded: induced the strongest boundaries; anticoagulant activity [9]: 201 IU/mg
Per-sulphated heparin [HEP9] | 35.0 | – | – | – | – | boundary formation between OECs and astrocytes ([1]; listed as Hep 9): induced the strongest boundaries; boundary formation between OECs and astrocytes ([1]; listed as Hep9): induced boundaries between OECs and astrocytes

Reference: patent US9889150B2, “Agents for the prevention and/or treatment of central nervous system damage” (The University Of Liverpool, priority 2012, dated 2018)
